Patent publication US4959368A, “Therapeutic agent for neurological diseases” (Mitsui Petrochemical Industries Ltd., priority 1986, dated 1990)

Tests used:
[1] = tested on: human neuroblastoma cell line GOTO; experiment: Activity on neuroblastoma cell line GOTO (cell number, number and length of neurites); format: cell-based
Procedure: The biological activities in vitro of the compounds of formula (I) on cells of the nervous system were tested. The cells tested were human neuroblastoma cell line GOTO [see Sekiguchi, M., Oota, T., Sakakibara, K., Inui, N. & Fujii, G., Japan. J. Exp. Med., 49, 67-83 (1979)], and neuroblastoma cell line NB-1 [see Miyake, S., Shimo, Y., Kitamura, T., Nojyo, Y., Nakamura, T., Imkashuku, S. and Abe, T., The Autonomic Nervous System, 10, 115-120 (1973)], and mouse neuroblastoma cell line neuro-2a (Dainippon Pharmaceutical Co., Ltd.) which have been established as the cells of the nervous system. The above neuve cells were grown in an incubator at 37° C. in the presence of 5% carbon dioxide gas exponentially, and then cultivated for a certain period of time together with the compounds of formula (I).
The effect of the compounds of this invention on neuroblastoma cells was examined by the following method.
A culture medium [composed of 45% of RPMI 1640 medium, 45% modified Eagle's medium (MEM) and 10% of fetal calf serum (FCS) and containing penicillin G sodium (100 units/ml) and streptomycin sulfate (100 microgram/ml)] containing neurobalstoma cell line GOTO in the logarithmic growth period was poured in an amount of 2 ml each into polystyrene dishes (35 mm; made by Corning Co.) so that the cell concentration was 2 to 6×10^4 cells per dish, and the cells were cultured for 1 to 2 days in a carbon dioxide gas incubator containing 5% of carbon dioxide gas in air at 37° C. Then, the culture fluid was removed, and 2 ml of a fresh serum-free culture fluid (consisting of 50% of RPMI medium and 50% of MEM medium and containing penicillin G sodium and streptomycin sulfate in the same amounts as above) was added. At the same time, a presterilized PBS solution (phosphate buffered saline) of each of the test compounds in various concentrations was added to each of the dishes. After culturing for 24 hours, the number of living cells was counted. Furthermore, the culture was photographed, and from the photos, the number and length of neurites per cell were measured. The numer of living cells was counted for 3 to 6 dishes by resistance to staining with erythrosine dye. The number and length of the neurites were measured with regard to 6 photos (more than 200 cells per photo).

[2] = tested on: mouse neuroblastoma cell line neuro-2a; experiment: Activity on neuro-2a, cells with outgrown neurites; format: cell-based
Procedure: In order to examine the effects of the test compounds, the following method was also employed.
Mouse neuro 2a cells in the logarithmic growth period in the Dulbecco's modified Eagle's medium (DMEM) containing 10% FCS was seeded in a 48-well plate so that the number of cells was 1,000 cells/well, and cultured for one day in 0.25 ml of the culture fluid in each well. The culture medium was then replaced by a medium containing each of the test compounds and FCS, and the cells were further cultured for 24 hours. Then, a 4% aqueous glutaraldehyde solution in the same amount as the medium (0.25 ml) was added, and the culture fluid was left to stand at room temperature for 2 hours to fix the cells. After washing with water, a 0.05% aqueous solution of methylene blue was added to stain the cells. Under a microscope, the number of cells containing outgrown neurites (cells having at least one neutrite with a length at least two times as large as the long diameter of the cell) was counted visually, and the proportion of these cells in the entire cells was calculated. The well was observed over 5 or more visual fields (at least 2% of the entire surface area of the well) continuous to the left and right from a mark put at the center of the well, and more than 200 cells was counted. One drug compound was used in 6 different concentrations at most, and three runs were conducted for each concentration.

mice = experiment: Acute toxicity, mouse; format: in vivo; details: 24 hours; for Number of dead animals/number of test animals: Table 7, 1000 mg/kg p.o.; for Presumed LD50: Table 7, p.o., 1440 min
Procedure: The acute toxicity of the compounds of the invention was examined by the following method.
Male ddy-strain 5-week old mice and male Wistar-strain 8 week old rats, five per group, were used as experimental animals. Each of the compounds was dissolved in saline and administered perorally, and the toxicity of the compound was assessed 24 hours after the administration.

[3] = Table 3 Run No. 11, 0.1 mM, control 2.5 ± 0.6
[4] = Table 3 Run No. 6, 0.1 mM, control 4.4 ± 0.9

Compound: COc1cc2cnc(N3CCNCC3)nc2cc1OC [Compound 940]
- Number of neurites/cell (mean ± S.D.) ([1]; Table 1 Run No. 1, 10 μg/ml, control 2.09 ± 0.61): 2.12 ± 0.60 neurites/cell
- Number of cells (mean ± S.E.) ([1]; Table 1 Run No. 1, 10 μg/ml, control 14.34 ± 0.72): 21.55 ± 2.36 × 10^4 /dish
- Length of neurites (mean ± S.D.) ([1]; Table 1 Run No. 1, 10 μg/ml, control 70.10 ± 43.03): 77.92 ± 49.91 μm/cell
- Cells having neurites with a length at least twice the long diameter of cell/total number of cells [2, 3]: 11.5 ± 0.2%
- Cells having neurites with a length at least twice the long diameter of cell/total number of cells ([2]; Table 3 Run No. 11, 0.3 mM, control 2.5 ± 0.6): 17.0 ± 1.2%

Compound: CN1Cc2nc(N3CCNCC3)ncc2C1=O [Compound 606]
- Cells having neurites with a length at least twice the long diameter of cell/total number of cells [2, 4]: 6.9 ± 1.8%
- Cells having neurites with a length at least twice the long diameter of cell/total number of cells ([2]; Table 3 Run No. 6, 3 mM, control 4.4 ± 0.9): 11.9 ± 2.1%
- Number of dead animals/number of test animals (mice): 0/5
- Presumed LD50 (mice): > 1000 mg/kg p.o.

Compound: CN1Cc2nc(N3CCNCC3)ncc2C1=O [Compound 608]
- Number of dead animals/number of test animals (mice): 0/5
- Presumed LD50 (mice): > 1000 mg/kg p.o.

Compound: CC(C)N1Cc2nc(N3CCNCC3)ncc2C1=O [Compound 628]
- Length of neurites (mean ± S.D.) ([1]; Table 1, Run No. 6 by footnote, 1 μg/ml, control 42.48 ± 19.64, all *P <0.01): 55.72 ± 25.08 μm/cell
- Number of neurites/cell (mean ± S.D.) ([1]; Table 1, Run No. 6 by footnote, 10 μg/ml, control 1.79 ± 0.80): 2.06 ± 0.81 neurites/cell
- Length of neurites (mean ± S.D.) ([1]; Table 1, Run No. 6 by footnote, 10 μg/ml, control 42.48 ± 19.64, all *P <0.01): 53.68 ± 22.36 μm/cell
- Number of neurites/cell (mean ± S.D.) ([1]; Table 1, second control group (Run No. 6 by footnote), 1 μg/ml, control 1.79 ± 0.80): 1.90 ± 0.81 neurites/cell

Compound: CN1C(=O)Cc2cnc(N3CCN(Cc4ccc5c(c4)OCO5)CC3)nc21 [Compound 438, 5,6-Dihydro-7-methyl-2[4-(3,4-methylenedioxyphenylmethyl)piperazino]-6-oxo(7H)pyrrolo[2,3-d]pyrimidine naphthalene-2-sulfonate]
- Number of dead animals/number of test animals (mice): 0/5

Compound: CCNc1nc(N2CCNCC2)ncc1C(=O)OC [Compound 136]
- Number of neurites/cell (mean ± S.D.) ([1]; Table 1 Run No. 2, 1 μg/ml, control 2.06 ± 0.60): 2.14 ± 0.63 neurites/cell
- Number of cells (mean ± S.E.) ([1]; Table 1 Run No. 2, 1 μg/ml, control 12.30 ± 1.48): 12.85 ± 2.52 × 10^4 /dish
- Length of neurites (mean ± S.D.) ([1]; Table 1 Run No. 2, 1 μg/ml, control 55.00 ± 37.26): 60.24 ± 34.28 μm/cell
- Cells having neurites with a length at least twice the long diameter of cell/total number of cells ([2]; Table 3 Run No. 2, 0.1 mM, control 1.9 ± 0.9): 7.2 ± 1.7%
- Cells having neurites with a length at least twice the long diameter of cell/total number of cells ([2]; Table 3 Run No. 10, 0.01 mM, control 1.7 ± 0.7): 5.8 ± 1.6%
- Cells having neurites with a length at least twice the long diameter of cell/total number of cells ([2]; Table 3 Run No. 10, 0.03 mM, control 1.7 ± 0.7): 16.4 ± 0.9%
- Cells having neurites with a length at least twice the long diameter of cell/total number of cells ([2]; Table 3 Run No. 10, 0.1 mM, control 1.7 ± 0.7): 12.6 ± 1.4%

Compound: CC(=O)N1Cc2nc(N3CCNCC3)ncc2C1=O [Compound 650, 6-Acetyl-2-piperazino-5-oxo-5,6-dihydro(7H)pyrrolo[3,4-d]pyrimidine naphthalene-2-sulfonate]
- Number of dead animals/number of test animals (mice): 0/5

Compound: Cc1cc2c(C)nc(N3CCNCC3)nc2o1.Cl [Compound 906, 4,6-Dimethyl-2-piperazinofuro[2,3-d]pyrimidine hydrochloride]
- Cells having neurites with a length at least twice the long diameter of cell/total number of cells [2, 4]: 7.4 ± 1.0%
- Cells having neurites with a length at least twice the long diameter of cell/total number of cells ([2]; Table 3 Run No. 6, 0.3 mM, control 4.4 ± 0.9): 7.0 ± 0.6%

Compound: Cl.c1nc(N2CCNCC2)nc2c1CCC2 [Compound 202, 6,7-Dihydro-2-piperazino(5H)cyclopentapyrimidine hydrochloride]
- Cells having neurites with a length at least twice the long diameter of cell/total number of cells [2, 4]: 5.6 ± 1.1%

Compound: CN1C(=O)Cc2cnc(N3CCNCC3)nc21 [Compound 420]
- Cells having neurites with a length at least twice the long diameter of cell/total number of cells ([2]; Table 3 Run No. 8, 0.3 mM, control 3.7 ± 0.4): 16.5 ± 2.1%
- Cells having neurites with a length at least twice the long diameter of cell/total number of cells ([2]; Table 3 Run No. 8, 0.5 mM, control 3.7 ± 0.4): 30.6 ± 5.0%
- Cells having neurites with a length at least twice the long diameter of cell/total number of cells ([2]; Table 3 Run No. 8, 1 mM, control 3.7 ± 0.4): 47.5 ± 0.6%

Compound: CCC(=O)N1Cc2nc(N3CCNCC3)ncc2C1=O [Compound 678]
- Cells having neurites with a length at least twice the long diameter of cell/total number of cells [2, 3]: 4.1 ± 2.2%
- Cells having neurites with a length at least twice the long diameter of cell/total number of cells ([2]; Table 3 Run No. 11, 1 mM, control 2.5 ± 0.6): 16.1 ± 1.6%
- Cells having neurites with a length at least twice the long diameter of cell/total number of cells ([2]; Table 3 Run No. 11, 3 mM, control 2.5 ± 0.6): 9.1 ± 2.2%
- Number of dead animals/number of test animals (mice): 0/5

Compound: CCN(CC)C(=O)c1cnc(N2CCNCC2)nc1NC(C)C [Compound 108]
- Cells having neurites with a length at least twice the long diameter of cell/total number of cells ([2]; Table 3 Run No. 2, 0.3 mM, control 1.9 ± 0.9): 4.6 ± 1.2%
- Cells having neurites with a length at least twice the long diameter of cell/total number of cells ([2]; Table 3 Run No. 2, 1 mM, control 1.9 ± 0.9): 6.9 ± 1.6%

Compound: CC(=O)N1CCN(c2ncc3c(n2)N(C)C(=O)C3)CC1 [Compound 440, 2-(4-Acetylpiperazino)-5,6-dihydro-7-methyl-6-oxo(7H)pyrrolo[2,3-d]pyrimidine]
- Cells having neurites with a length at least twice the long diameter of cell/total number of cells ([2]; Table 3 Run No. 9, 1 mM, control 2.0 ± 1.0): 5.8 ± 1.0%
- Cells having neurites with a length at least twice the long diameter of cell/total number of cells ([2]; Table 3 Run No. 9, 3 mM, control 2.0 ± 1.0): 12.9 ± 4.1%

Compound: Cl.c1nc(N2CCNCC2)nc2c1CCO2 [Compound 902, 5,6-Dihydro-2-piperazinofuro[2,3-d]pyrimidine hydrochloride]
- Cells having neurites with a length at least twice the long diameter of cell/total number of cells ([2]; Table 3 Run No. 6, 0.01 mM, control 4.4 ± 0.9): 6.9 ± 0.8%
- Cells having neurites with a length at least twice the long diameter of cell/total number of cells ([2]; Table 3 Run No. 6, 0.03 mM, control 4.4 ± 0.9): 6.7 ± 0.9%
- Cells having neurites with a length at least twice the long diameter of cell/total number of cells ([2]; Table 3 Run No. 6, 1 mM, control 4.4 ± 0.9): 6.7 ± 1.0%

Compound: CCOC(=O)CN1CCN(c2ncc(C(=O)OC)c(NC(C)C)n2)CC1 [Compound 100, Methyl 2-(4-ethoxycarbonylmethylpiperazino)-4-isopropylaminopyrimidine-5-carboxylate]
- Number of neurites/cell (mean ± S.D.) ([1]; Table 1, Run No. 7 by footnote, 10 μg/ml, control 1.77 ± 0.68): 2.00 ± 0.79 neurites/cell
- Length of neurites (mean ± S.D.) ([1]; Table 1, Run No. 7 by footnote, 10 μg/ml, control 42.20 ± 17.75, all *P <0.01): 56.06 ± 26.47 μm/cell
